Measurements from patent EP0751957B1, “PEPTIDE FRAGMENTS OF MICROBIAL STRESS PROTEINS AND PHARMACEUTICAL COMPOSITION MADE THEREOF FOR THE TREATMENT AND PREVENTION OF INFLAMMATORY DISEASES” (priority 1994, dated 2004).

Tests used:
[1] = test system: Peptide-specific T cell lines; assay: T cell proliferation assay, peptide-specific T cell lines from peptide-immunised rats; type: cell-based, Lewis rats; conditions: T cell line from 176-190-immunised PLNC; in vitro peptide 10 µg/ml
Protocol: T cell proliferation assays: PLNC were cultured in triplicate in 200 µl flat bottom microtitre wells (Costar) at 2 x 10^5 cells per well with or without antigen. In initial experiments PLNC were tested for responsiveness to individual peptides at concentrations of 5 and 20 µg/ml, and Mt, hsp65 and PPD over a range of concentrations. Concanavalin A (2 µg/ml) was used as a positive control for T cell proliferation. Cultures were incubated for 96 h at 37°C in a humidified atmosphere of 5% CO2. Cultures were pulsed for the final 16 h with [^3H] TdR (Amersham, U.K., 1 uCi/well) and TdR uptake measured using a liquid scintillation β counter. Assays using T cell lines were performed as above using 2 x 10^4 line cells per well with irradiated (30 Gy) syngeneic accessory cells (either 3 x 10^5 splenocytes/well or 10^6 thymocytes/well). Results are expressed as mean counts per minute (cpm) of triplicate cultures. In experiments where responses to Ag were low, responses were considered significant if the stimulation index (S.I. = […]) was greater than two and Student's t tests gave p < 0.01.
T cell lines: T cell lines with specificity for mycobacterial hsp65 or peptides were generated by bulk stimulation of either hsp65-PLNC or Mt-PLNC. PLNC were cultured at 5 x 10^6/ml in culture medium supplemented with 2% normal rat serum (NRS) in the presence of 10 µg/ml Ag. After three days viable cells were harvested using a ficoll-isopaque gradient and cultured for a further four days in culture medium + 5% FCS and 5% TCGF (Con A-activated rat spleen supernatant). Seven days after initial stimulation lines were restimulated with irradiated spleen accessory cells and 10 µg/ml Ag in culture medium + NRS. Lines were maintained ir. this seven day restimulation cycle. Short term epitope-specific T cell lines were also generated from rats immunised with synthetic peptides. Peptide-PLNC were cultured as above in the presence of 10 µg/ml peptide.
Bulk stimulation generated T cell lines to eight of the nine peptides tested. These eight lines were tested for specificity after four in vitro restimulations (Table II). All responded to the immunising peptide and, to some extent, to hsp65.
T cell responses by immunisation with hsp65 peptides. Rats were immunised with synthetic peptides containing individual hsp65 epitopes (100 µg peptide/DDA per rat). Ten days later PLNC were isolated and tested for responses to overlapping peptides (20 µg/ml). Peptide-specific T cell lines were generated by bulk in vitro stimulation of PLNC with immunising peptide. Lines were tested for responses to overlapping peptides (10 µg/ml). […] Results are expressed as mean cpm of triplicate cultures. All SEM were less than 20%.

[2] = test system: adjuvant arthritis; assay: Adjuvant arthritis (AA) induced with Mt in IFA, clinical arthritis score; type: in vivo, Lewis rats; conditions: 100 µg peptide in DDA, hind footpads, 7 days prior to AA induction with Mt
Protocol: Induction and clinical assessment of experimental arthritis: Arthritis was induced by a single intradermal injection in the base of the tail. AA was induced with 0.5 mg Mt suspended in 100 µl IFA. CP20961 arthritis was induced with 2 mg CP20961 in 100 µl light mineral oil (Sigma). Rats were examined daily for clinical signs of arthritis. Severity of arthritis was assessed by scoring each paw from zero to four based on degree of swelling, erythema and deformity of the joints. Thus the maximum possible arthritis score was 16.
Modulation of arthritis with hsp65 peptides and epitope-specific T cell lines: Synthetic peptides corresponding to eight T cell epitopes present in mycobacterial hsp65 were tested for protective effects on arthritis development. Rats were immunised with 100 µg of individual peptide seven days prior to arthritis induction. Peptides were immunised in each hind footpad in 10 mg/ml DDA (50 µl/pad). Control rats received only PBS/DDA. Epitope-specific T cell lines were also tested for protective activity by intravenous administration of lines at the time of arthritis induction. T cell lines were restimulated in vitro with irradiated spleen APC and specific peptide. Four days later T cell blasts were harvested by ficoll gradient, washed and applied to a second ficoll gradient to remove any contaminating APC. T cells were washed twice in wash medium and twice in PBS and finally suspended at 2.5x10^7/ml in PBS. Immediately prior to injection of Mt, 200 µl (i.e. 5x10^6) T cells were injected i.v. in the tail vein.
The effects of preimmunisation with synthetic peptides containing individual epitopes on the development of AA were analysed (Fig. 7). The eight peptides which primed for epitope specific T cells were tested. Rats were immunised with 100 µg of peptide 7 days prior to AA-induction with Mt.

With “peptide 176-190: synthetic 15mer of mycobacterial hsp65 containing the AA-associated epitope 180-188” the “CPM T Cell Line” value [1] was 31400 cpm and the “protection against AA development after peptide preimmunisation” value [2] was “no effect on AA onset”.
